Data from patent US7745571B2, “Peptide inhibitors of IASPP” (Ludwig Institute for Cancer Research, priority 2002, dated 2010).

Tests used:
[1] = tested on: p53 transactivation in U2SO; experiment: p53 transactivation in tumour cell line after UV damage of DNA in presence of peptide (FIG. 5); type: cell-based, human; settings: U2SO cells after UV damage of DNA
Text: FIG. 5 illustrates the stimulation of p53 transactivation in a human tumour cell line U2SO after UV damage of DNA in the presence of peptide DGPEETD (SEQ ID NO: 2);

Bax promoter = experiment: Stimulation of the Bax promoter by p53 after incubation with peptides (FIG. 4); type: cell-based; settings: after incubation with peptide
Description: FIG. 4 illustrates the stimulation of the Bax promoter by p53 after incubation with various peptides, in particular DGPEETD (SEQ ID NO: 2);
For transcriptional assay, 5×10^5 Saos-2 cells were plated 24 hr prior to transfection in 6 cm dishes. Various combinations of plasmid DNA were transfected using the following amounts. All transfection assays contain 1 μg of reporter plasmid. 50 ng of wild type human p53, 100 ng of plasmid expressing C. elegans p53, 4 μg of ASPP2, or 8 μg of ASPP1, 5 μg of human iASPP or 7.5 μg of Ce-iASPP were used as indicated. After transfection, the cells were lysed in Reporter Lysis Buffer (Promega, Wis., USA) 16-24 hr post-wash and assayed using the Luciferase Assay kit (Promega, Wis., USA). The fold activation of a particular reporter was determined by the activity of the transfected plasmid above the activity of vector alone. The fold increase of p53 transactivation activity by ASPP was obtained by the activity p53 in combination with ASPP divided by the activity of p53 alone on the promoters used in each assay.

DGPEETD (p53 inhibitor peptide)
stimulation of p53 transactivation [1]: stimulation | stimulation of the Bax promoter by p53 (Bax promoter): stimulation
